Measurements taken from ChEMBL document CHEMBL2396593, “Targeting mutant KRAS for anticancer therapeutics: a review of novel small molecule modulators” (J Med Chem, 2013).
pEC50, pIC50, pKi: −log10 of the molar value.

How the values were obtained:
[1] = test system: MEF; experiment: Antitumor activity against MEF harboring KRAS G12D mutant allografted in p53-null mouse assessed as reduction in tumor volume relative to control; format: functional; set-up: scale not given: the % may be the effect or the level left
[2] = test system: MEF; experiment: Antitumor activity against MEF harboring KRAS G12D mutant allografted in p53-null mouse assessed as reduction in tumor weight relative to control; format: functional; set-up: scale not given: the % may be the effect or the level left
[3] = test system: MEF; experiment: Cytotoxicity against MEF harboring KRAS G12D mutant by ATP-based cell viability assay; format: functional; details: Mus musculus
[4] = test system: GTPase KRas (Homo sapiens), P01116 [G12D]; experiment: Binding affinity to KRAS G12D mutant (unknown origin)
GTPase KRas (Homo sapiens), P01116 [G12D], sequence (P01116 whole entry G12D, looked up): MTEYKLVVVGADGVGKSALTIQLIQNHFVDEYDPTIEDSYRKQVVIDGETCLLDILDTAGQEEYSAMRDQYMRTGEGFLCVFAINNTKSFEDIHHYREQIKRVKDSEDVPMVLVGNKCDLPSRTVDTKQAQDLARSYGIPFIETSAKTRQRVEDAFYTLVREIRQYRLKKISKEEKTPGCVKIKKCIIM

[5] = test system: DLD-1; experiment: Antiproliferative activity against human DLD1 cells expressing KRAS mutant at 25 nM; format: functional
[6] = molecular target: T1, GTPase KRas (Homo sapiens, UniProt P01116); experiment: Inhibition of full-length human KRas4B (amino acids 1 to 188)-SOS interaction assessed as inhibition of SOS-mediated nucleotide release activity
T1 sequence (P01116 whole entry, the tested form may be a part): as the sequence (P01116 whole entry G12D, looked up) above, with D12G counted along it

[7] = molecular target: T1, GTPase KRas; experiment: Inhibition of full-length human KRas4B (amino acids 1 to 188)-SOS interaction assessed as inhibition of nucleotide exchange activity
[8] = Inhibition of human Rce1p using quenched fluorogenic substrate by fluorescence assay
[9] = Inhibition of yeast Rce1p using yeast a-factor mating pheromone substrate; set-up: species or system Saccharomyces cerevisiae
[10] = molecular target: T2, Dual specificity mitogen-activated protein kinase kinase 1 (Homo sapiens, UniProt Q02750); experiment: Inhibition of MEK1 (unknown origin)
T2 sequence (Q02750 whole entry): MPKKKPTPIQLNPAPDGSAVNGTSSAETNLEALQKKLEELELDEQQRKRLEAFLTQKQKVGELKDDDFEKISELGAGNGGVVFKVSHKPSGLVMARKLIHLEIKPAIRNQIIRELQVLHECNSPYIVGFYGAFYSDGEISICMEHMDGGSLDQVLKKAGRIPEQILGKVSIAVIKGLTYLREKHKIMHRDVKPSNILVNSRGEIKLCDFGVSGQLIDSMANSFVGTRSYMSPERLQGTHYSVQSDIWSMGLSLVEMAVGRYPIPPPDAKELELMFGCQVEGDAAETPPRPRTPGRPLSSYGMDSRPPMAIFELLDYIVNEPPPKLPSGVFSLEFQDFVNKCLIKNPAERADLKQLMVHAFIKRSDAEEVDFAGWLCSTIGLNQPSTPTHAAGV

[11] = test system: Mus musculus; experiment: Inhibition of MEK1-mediated ERK phosphorylation in human HT-29 cells xenografted in nude mouse assessed as plasma concentration required for inhibition at 100 mg/kg, po administered as single dose measured after 1 to 12 hrs by Western blot analysis; format: functional, organism-based; set-up: dose 100 mg/kg, route oral; details: HT-29, Plasma
[12] = test system: Mus musculus; experiment: Inhibition of MEK1-mediated ERK phosphorylation in human LOX cells xenografted in nude mouse assessed as plasma concentration required for inhibition at 100 mg/kg, po administered as single dose measured after 1 to 12 hrs by Western blot analysis; format: functional, organism-based; set-up: dose 100 mg/kg, route oral
[13] = test system: DLD-1; experiment: Cytotoxicity against mutant KRAS allele-deficient human DLD1 cells; format: functional, cell-based
[14] = test system: DLD-1; experiment: Cytotoxicity against human DLD1 cells harboring mutant KRAS; format: functional, cell-based
[15] = test system: DLD-1; experiment: Selectivity ratio of IC50 for mutant KRAS allele-deficient human DLD1 cells to IC50 for human DLD1 cells harboring mutant KRAS; format: functional
[16] = test system: NCI-H2122; experiment: Cytotoxicity against human NCI-H2122 cells by SRB assay; format: functional, cell-based
[17] = Antitumor activity against human H460 cells xenograft model assessed as tumor growth inhibition at 100 mg/kg, ip relative to solvent control; format: functional; details: NCI-H460, ip, route intraperitoneal, read-out: TGI
[18] = test system: A549; experiment: Cytotoxicity against human A549 cells by SRB assay; format: functional, cell-based
[19] = Cytotoxicity against human H460 cells by SRB assay; format: functional, cell-based; details: NCI-H460
[20] = Antitumor activity against human H460 cells xenograft model assessed as increase in host survival at 100 mg/kg, ip relative to solvent control (reference value: 24 days); format: functional, NCI-H460; details: route intraperitoneal
[21] = Cytotoxicity against human NCI-H2887 cells by SRB assay; format: functional, cell-based
[22] = Cytotoxicity against human T29Kt1 cells by SRB assay
[23] = Inhibition of MEK/ERK (unknown origin); set-up: species or system Homo sapiens
[24] = Inhibition of cRaf/MEK/ERK (unknown origin); set-up: species or system Homo sapiens
[25] = molecular target: RAF proto-oncogene serine/threonine-protein kinase (Homo sapiens, UniProt P04049); experiment: Inhibition of cRAF (unknown origin) by Caliper assay
RAF proto-oncogene serine/threonine-protein kinase, sequence (P04049 whole entry): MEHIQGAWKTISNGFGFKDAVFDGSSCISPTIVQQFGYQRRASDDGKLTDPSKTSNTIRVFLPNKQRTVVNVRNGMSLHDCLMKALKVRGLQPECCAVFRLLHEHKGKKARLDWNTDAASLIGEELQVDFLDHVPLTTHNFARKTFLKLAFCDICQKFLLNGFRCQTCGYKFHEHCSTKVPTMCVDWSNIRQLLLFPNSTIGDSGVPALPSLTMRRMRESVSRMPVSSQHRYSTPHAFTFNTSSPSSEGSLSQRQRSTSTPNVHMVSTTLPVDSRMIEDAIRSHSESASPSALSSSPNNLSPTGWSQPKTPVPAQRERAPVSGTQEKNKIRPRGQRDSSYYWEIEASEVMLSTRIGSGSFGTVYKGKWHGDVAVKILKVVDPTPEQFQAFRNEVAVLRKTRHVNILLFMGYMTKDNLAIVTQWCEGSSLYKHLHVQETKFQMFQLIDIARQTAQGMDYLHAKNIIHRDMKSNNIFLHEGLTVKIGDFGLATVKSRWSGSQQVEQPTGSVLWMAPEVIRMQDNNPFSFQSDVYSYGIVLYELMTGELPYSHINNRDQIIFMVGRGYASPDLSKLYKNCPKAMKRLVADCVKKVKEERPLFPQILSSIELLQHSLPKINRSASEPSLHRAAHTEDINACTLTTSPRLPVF

[26] = molecular target: T2, Dual specificity mitogen-activated protein kinase kinase 1; experiment: Non-competitive inhibition of MEK1 (unknown origin) kinase activity using fluorescent peptide as substrate by fluorescence assay in presence of ATP

Compound: C[C@H](CN1CCCC1)C(=O)c1ccc(C(F)(F)F)cc1 [LANPERISONE]
- Activity [1]: 24%
- Activity [2]: 37%
- pIC50 [3]: 5.40

Compound: CC[C@H](C)[C@H](N)C(=O)Nc1ccc2nc(Cc3c[nH]c4ccccc34)[nH]c2c1
- Activity [4]: 190 µM

Compound: CC[C@@H]1C(=O)N(C)c2cnc(Nc3ccc(C(=O)NC4CCN(C)CC4)cc3OC)nc2N1C1CCCC1 [BI-2536]
- inhibition at 0.025 µM [5]: > 50%

Compound: Cc1[nH]c2cc(Cl)cc(Cl)c2c1CCN
- pIC50 [6]: 3.81
- pIC50 [7]: 3.47

Compound: CCCC(c1cc(C(C)(C)C)c(O)cc1C)c1cc(C(C)(C)C)c(O)cc1C
- pIC50 [8]: 6.40
- pIC50 [9]: 5.22

Compound: C[C@H](CO)COc1ccc([C@H]2NC(=O)N([C@H](C(=O)Nc3ccc(I)cc3F)[C@@H](C)c3ccccc3)C2=O)cc1
- pIC50 [10]: 7.60
- pEC50 [11]: 5.47
- pEC50 [12]: 5.87

Compound: c1ccc(-c2nn(-c3ccccc3)[n+](-c3ccccc3)n2)cc1
- IC50 [13]: 12 µg/mL
- IC50 [14]: 2 µg/mL
- Ratio IC50 [15]: 6

Compound: O=C(O)c1ccc(NC(c2ccccc2)c2ccc3cccnc3c2O)cc1 (stereo unspecified)
- pIC50 [8]: 6.40
- pIC50 [9]: 5.22

Compound: O=Cc1cn(Cc2ccc(Cl)cc2)c2ccccc12
- pIC50 [16]: ≥ 5.52
- inhibition in vivo at 100 mg/kg [17]: 75.4%
- pIC50 [18]: ≥ 5.52
- pIC50 [19]: ≥ 5.52
- Survival [20]: 32 days
- pIC50 [21]: ≥ 5.52
- pIC50 [22]: 5.32

Compound: Cc1[nH]c2ccccc2c1Cc1nc2ccccc2[nH]1
- Activity [4]: 1300 µM

Compound: CCC(=O)c1csc(NC(=O)[C@H]([C@@H](C)c2ccccc2)N2C(=O)N[C@H](c3ccc(OCCO)cc3)C2=O)n1
- pKi [23]: 6.74
- pKi [24]: 7.28
- pKi [25]: < 4.30
- pIC50 [26]: 7.64

Compound: NC(=O)c1nnn(Cc2cc(Cl)c(C(=O)c3ccc(Cl)cc3)c(Cl)c2)c1N [CARBOXYAMIDOTRIAZOLE]
- pIC50 [8]: 6.40
- pIC50 [9]: 5.22
